Settings: not given
For `O=[N+]([O-])C(Br)(CO)CO`, the melting point was 132 °C and the ready biodegradability was “not readily biodegradable”. In the case of `CCOC(=O)/C=C\C(=O)OCC`, the boiling point is reported as 218 °C, the log10 vapour pressure (mmHg) is reported as -0.979 and the melting point is reported as -3.65 °C. `Cc1ccc(C)c(O)c1` gave a boiling point of 211 °C, a log10 Henry constant (atm·m³/mol) of -5.95 and a log10 vapour pressure (mmHg) of -0.807. The melting point was 74.8 °C and the ready biodegradability was “not readily biodegradable”. With `COP(=S)(OC)Oc1cc(Cl)c(Br)cc1Cl` the log10 vapour pressure (mmHg) was -3.89 and the melting point was 53.5 °C. In the case of `C=CC#CCCC`, the boiling point is reported as 110 °C. `CC(=O)CC(=O)Nc1ccccc1Cl` showed a melting point of 105 °C. With `CC(O)COC(C)C` (stereo not drawn) the boiling point was 138 °C. For `C1=CC=CCC=C1`, the boiling point was 117 °C, the log10 vapour pressure (mmHg) was 1.37 and the melting point was -79.5 °C. For `Cc1cnc(NS(=O)(=O)c2ccc(N)cc2)nc1`, the melting point was 262 °C. `CC(=O)c1ccc2ccccc2c1` showed a boiling point of 302 °C, a log10 Koc (L/kg) of 2.93 and a log10 vapour pressure (mmHg) of -3.21. For the same compound, the melting point was 56 °C. With `CCCCCCCCCOC(C)=O` the boiling point was 210 °C and the melting point was -26 °C. In the case of `O=C[C@H](O)C(O)[C@H](O)CO` (stereo in doubt), the log10 vapour pressure (mmHg) is reported as -9.71. `COS(=O)(=O)[O-].C[n+]1c2ccccc2nc2ccccc21` gave a melting point of 157 °C. `CCCCC(Cl)CC` (stereo not drawn) gave a boiling point of 144 °C. With `Cc1ccc(N(CC2=NCCN2)c2cccc(O)c2)cc1` the melting point was 174 °C. For `CCC(C)(CO)CO`, the boiling point was 226 °C and the melting point was 40.3 °C. `ClCC(CCl)(CCl)CCl` showed a melting point of 97 °C. With `Cc1ccnc2ccccc12` the boiling point was 262 °C, the log10 vapour pressure (mmHg) was -2.2 and the melting point was 9.5 °C. `CCCCCCCCCCC(C)=O` gave a boiling point of 246 °C, a log10 vapour pressure (mmHg) of -1.69 and a melting point of 21 °C. In the case of `CC1(C)OCCO1`, the boiling point is reported as 92.5 °C. `CC(CN(C)C)CN1c2ccccc2CCc2ccccc21` (stereo not drawn) showed a melting point of 45 °C. Work on `COc1ccc(C(C)=O)cc1OC` yielded a boiling point of 287 °C and a melting point of 51 °C. `C[C@H]1O[C@@H](O[C@H]2[C@@H](O)C[C@H](O[C@H]3[C@@H](O)C[C@H](O[C@H]4CC[C@@]5(C)[C@H](CC[C@@H]6[C@@H]5CC[C@]5(C)[C@@H](C7=CC(=O)OC7)CC[C@]65O)C4)O[C@@H]3C)O[C@@H]2C)C[C@H](O)[C@@H]1O` showed a melting point of 256 °C. Compound `CC(C)(C)NSc1nc2ccccc2s1` has a log10 vapour pressure (mmHg) of -6.34. `O=C(O)/C=C/Cl` gave a melting point of 82 °C. For `CCC(CC1CCCCC1)CC1CCCCC1`, the boiling point was 306 °C. `CC(C)CCCCCCCCCCCO` gave a melting point of 10.5 °C. For `Nc1ccc(S(=O)(=O)c2ccc(NC(=O)CCC(=O)O)cc2)cc1`, the melting point was 157 °C. With `C=CC(C)(O)CC` (stereo not drawn) the boiling point was 118 °C. `Cn1ccc(=O)[nH]c1=O` gave a log10 vapour pressure (mmHg) of -3.29 and a melting point of 237 °C. With `CCCCCCCCCCCCCCCCCCNC` the melting point was 44 °C. Compound `C/C(=N/NC(=O)c1ccncc1)c1ccco1` has a melting point of 202 °C. With `Cc1cccc(C(C)(C)C)c1O` the boiling point was 230 °C, the melting point was 31 °C and the ready biodegradability was “not readily biodegradable”. `CCOCCC#N` showed a boiling point of 154 °C. For `O=Cc1ccc([N+](=O)[O-])o1`, the boiling point was 228 °C, the melting point was 35.5 °C and the ready biodegradability was “readily biodegradable”. Compound `CCCCCCCCCCCCCCCCC(=O)OCC` has a melting point of 28 °C. In the case of `CCC(C)(S(=O)(=O)CC)S(=O)(=O)CC`, the melting point is reported as 76 °C. For `Cc1ncc(CO)c(C(=O)O)c1O`, the melting point was 248 °C. Work on `Clc1ccccc1-c1cc(Cl)c(Cl)c(Cl)c1Cl` yielded a log10 vapour pressure (mmHg) of -4.16. Work on `Cc1cc(O)c(Cl)c(C)c1Cl` yielded a melting point of 83 °C. Compound `CCC(C#N)c1ccccc1` (stereo not drawn) has a boiling point of 241 °C. In the case of `Nc1c(Cl)cccc1Cl`, the log10 Koc (L/kg) is reported as 3.25 and the melting point is reported as 39 °C. Work on `Cc1ccccc1NC(=N)Nc1ccccc1C` yielded a melting point of 179 °C. For `CN(C)c1ccc(Cl)cc1`, the boiling point was 231 °C and the melting point was 35.5 °C. In the case of `CCCCCCCCCCCCCCCCCC(=O)OCCC`, the melting point is reported as 28.9 °C. Work on `Cc1nc(C)c(Cl)c(O)c1Cl` yielded a melting point of 320 °C. With `O=P(O)(O)C(Cl)(Cl)P(=O)(O)O` the melting point was 250 °C. Work on `N#Cc1nccnc1C#N` yielded a melting point of 132 °C. Work on `Nc1ncccn1` yielded a melting point of 128 °C. In the case of `CC1(C)[C@@H](OC(=O)CCC(=O)O)CC[C@]2(C)[C@H]3C(=O)C=C4[C@@H]5C[C@@](C)(C(=O)O)CC[C@]5(C)CC[C@@]4(C)[C@]3(C)CC[C@@H]12`, the melting point is reported as 292 °C. Work on `CC(=O)/C=C/C1C(C)=CCCC1(C)C` (stereo not drawn) yielded a log10 vapour pressure (mmHg) of -1.76. `C=C=C` gave a boiling point of -34.4 °C, a log10 vapour pressure (mmHg) of 3.73 and a melting point of -136 °C. Work on `NC(=O)CC(N)C(=O)O` (stereo not drawn) yielded a melting point of 234 °C. `Nc1ccc(Cl)c([N+](=O)[O-])c1` gave a melting point of 103 °C. For `NC(=O)CCC/N=C(\c1ccc(Cl)cc1)c1cc(F)ccc1O`, the melting point was 134 °C. `COc1ccc(CN)cc1` showed a boiling point of 236 °C. Compound `O=C(c1ccccc1)c1ccc2n1CCC2C(=O)O` (stereo not drawn) has a melting point of 160 °C. With `O=C1C=CC(=O)N1c1ccc(Cc2ccc(N3C(=O)C=CC3=O)cc2)cc1` the ready biodegradability was “not readily biodegradable”. In the case of `O=C(O)COc1ccccc1`, the boiling point is reported as 285 °C and the melting point is reported as 98.5 °C. With `CNC(N)=O` the melting point was 103 °C. In the case of `COC(F)(F)C(Cl)Cl`, the boiling point is reported as 105 °C, the log10 Henry constant (atm·m³/mol) is reported as -2.43 and the melting point is reported as -35 °C. Work on `COc1cc(Cl)c(Cl)c(Cl)c1Cl` yielded a melting point of 84 °C. In the case of `CN1CC[C@]23C(=O)C[C@H]4C(=CCO[C@H]5CC(=O)N(c6c(O)cccc62)[C@H]3[C@H]54)C1`, the melting point is reported as 282 °C. In the case of `Cc1ccc(S(=O)(=O)NC(=O)NN2CCCCCC2)cc1`, the melting point is reported as 172 °C.

Same assay, conditions: fish
`COc1ccc(Cl)c(Cl)c1Cl` showed a log10 BCF of 2.96 and a log10 biotransformation half-life (days) of 1.4. Work on `FC(F)(F)c1ccc(Cl)c(Cl)c1` yielded a log10 BCF of 3.18 and a log10 biotransformation half-life (days) of 1.52. For `COP(=S)(OC)Oc1cc(Cl)c(Br)cc1Cl`, the log10 BCF was 3.59 and the log10 biotransformation half-life (days) was 0.97. For `COc1cc(Cl)c(Cl)c(Cl)c1Cl`, the log10 BCF was 3.67.

— the OPERA property sets (Mansouri et al. 2018)
